Where two headings read alike, the source gives them in different places.
Biological target: T1, human FXR (Homo sapiens, UniProt Q96RI1)
T1 construct: expressed in transfected cells; host or cells: HEK293 cells stably carrying a 5xGal4-response-element firefly luciferase reporter, transiently transfected with the pcDNA3.1-Gal4-FXR plasmid
T1 sequence (Q96RI1 262-486 limits assumed): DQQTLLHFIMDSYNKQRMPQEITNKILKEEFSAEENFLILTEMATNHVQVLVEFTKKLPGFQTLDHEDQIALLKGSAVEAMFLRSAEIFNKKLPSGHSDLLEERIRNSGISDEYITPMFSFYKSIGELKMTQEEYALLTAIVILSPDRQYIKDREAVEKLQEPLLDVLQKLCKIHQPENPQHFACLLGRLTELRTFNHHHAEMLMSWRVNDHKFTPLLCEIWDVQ
Assay: transient human FXR/Gal4-luciferase reporter assay
Assay type: cell-based
Details: Gal4-hFXR reporter in HEK293 cells
Experimental: The exemplified compounds of the present invention were tested in the transient human FXR/Gal4-luciferase reporter assay, and assay results were reported in Table 1 together with other analytical data.
A Gal4-hFXR fusion construct reporter system was used as the primary assay to characterize compound activity. A construct including 5 copies of the Gal4 promoter response element upstream of a firefly luciferase reporter cDNA was stably expressed in HEK293 cells. This reporter cell line was maintained in Dulbecco's Modified Eagle's medium (DMEM; Gibco) supplemented with 1% penicillin-streptomycin (P/S) solution, 500 μg/mL Zeocin and 10% charcoal/dextran-treated fetal bovine serum (cs-FBS) at 37° C. in a humidified 5% CO2 atmosphere. Another plasmid was constructed in which the human cytomegalovirus promoter in the pcDNA3.1 vector directs the expression of the cDNA encoding a fusion protein comprised of the DNA binding domain from the Gal4 transcription factor fused to the ligand binding domain from human FXR.
The day prior to transfection, the reporter cells in culture are detached from the plate with trypsin and plated into a T75 flask at a sufficient density to achieve approximately 90% confluence the next morning. The transfection reagents are prepared by separately diluting 25 μg of the pcDNA3.1-Gal4-FXR plasmid into 1.87 mL of Opti-MEM (Thermo-Fisher), and 40 μL of Lipofectamine 2000 (Thermo-Fisher) into 1.87 mL of Opti-MEM, and then adding the diluted DNA solution into the diluted Lipofectamine 2000 solution and incubating at room temperature for 15-20 minutes. The mixture is further diluted with 10 mL of a solution comprised of DMEM, 10% cs-FBS, and 1% P/S immediately prior to transferring to the cells. The maintenance culture media is aspirated from the cells and the final transfection mixture is added before the cells are incubated overnight at 37° C. in a humidified 5% CO2 atmosphere. This protocol can be scaled up, and the transiently transfected cells can be cryopreserved in an assay-ready format.
For compound testing, 100 nL of the compounds (serial dilutions in DMSO) are dispensed with an Echo acoustic dispenser (Labcyte) into the wells of a Corning/Costar clear bottom 384-well white plate. The transfected cells are harvested, counted, and diluted such that 10-25,000 cells in 25 μL are plated into each well of the 384-well compound assay plate. The compound-treated cells are incubated overnight at 37° C. in a humidified 5% CO2 atmosphere. The next morning 25 μL of Steady-Glo (Promega) are added to each well of the plate, the mixture is incubated for 15 min. with shaking, and luminescence is measured on an Envision (Perkin Elmer) plate reader. Background counts from cells treated with DMSO alone are subtracted from all raw counts, and the corrected values are converted to a percentage of the control response attained with 8 μM GW-4064.

[1] = relative to 8 μM GW-4064, read-out: FXR EC50

| SMILES | EC50 [1] | EC50 (read-out: HLE GAL-FXR EC50) |
| --- | --- | --- |
| COCCOc1cc(C(=O)O)nc2ccc(N3CCC4(CC3)CC(=Cc3c(-c5c(Cl)cncc5Cl)noc3C(F)(F)F)C4)cc12 [Example 162] | 37 nM | – |
| O=C(O)c1cc(C(F)(F)F)c2cc(N3CCC4(CC3)CC(=Cc3c(-c5ccccc5C(F)(F)F)noc3C(F)(F)F)C4)ccc2n1 [Example 167] | 47 nM | – |
| Cc1cc(C(=O)O)nc2ccc(N3CCC4(CC3)CC(Cc3c(-c5ccccc5C(F)(F)F)noc3C3CC3)C4)cc12 [Example 78] | 16 nM | – |
| CC(=O)Nc1ncc(S(=O)(=O)N2CCC3(CC2)CC(Cc2c(-c4c(Cl)cccc4Cl)noc2C2CC2)C3)s1 [Example 176] | 840 nM | – |
| O=C(c1cc(OC2CCC2)c2cc(N3CCC4(CC3)CC(Cc3c(-c5ccccc5C(F)(F)F)noc3C3CC3)C4)ccc2n1)N1CCCCC1 [Example 189] | 34 nM | – |
| N#Cc1cnc(N2CCC3(CC2)CC(Cc2c(-c4c(Cl)cccc4Cl)noc2C2CC2)C3)s1 [Example 170] | 1200 nM | – |
| CCOc1cc(C(=O)O)nc2ccc(N3CCC4(CC3)CC(=Cc3c(-c5ccccc5C(F)(F)F)noc3C3CC3)C4)cc12 [Example 100] | 18 nM | – |
| O=C(NC1CC1)c1cc(OC2CCC2)c2cc(N3CCC4(CC3)CC(Cc3c(-c5ccccc5C(F)(F)F)noc3C3CC3)C4)ccc2n1 [Example 173] | 1370 nM | – |
| O=C(O)c1ccc2cc(N3CCC4(CC3)CC(Cc3c(-c5c(Cl)cccc5Cl)noc3C3CC3)C4)ccc2n1 [Example 40] | 51 nM | – |
| COCCOc1cc(C(=O)O)nc2ccc(N3CCC4(CC3)CC(=Cc3c(-c5ccccc5OC(F)(F)F)noc3C3CC3)C4)cc12 [Example 110] | 634 nM | – |
| O=C(O)c1cc(O[C@H]2CCOC2)c2cc(N3CCC4(CC3)CC(Cc3c(-c5ccccc5C(F)(F)F)noc3C3CC3)C4)ccc2n1 [Example 152] | 6 nM | – |
| O=C(O)c1cc(OC2CCCC2)c2cc(N3CCC4(CC3)CC(=Cc3c(-c5c(Cl)cncc5Cl)noc3C3CC3)C4)ccc2n1 [Example 125] | 15 nM | – |
| NC(=O)N1CCc2cc(N3CCC4(CC3)CC(=Cc3c(-c5ccccc5OC(F)(F)F)noc3C3CC3)C4)ccc2C1 [Example 180, 6-(2-((5-Cyclopropyl-3-(2-(trifluoromethoxy)phenyl)isoxazol-4-yl)methylene)-7-azaspiro[3.5]nonan-7-yl)-3,4-dihydroisoquinoline-2(1H)-carboxamide] | 1400 nM | – |
| COc1cc(C(=O)O)nc2ccc(N3CCC4(CC3)CC(Cc3c(-c5ccccc5OC(F)(F)F)noc3C3CC3)C4)cc12 [Example 71] | 16 nM | – |
| COc1cc(C(=O)O)nc2ccc(N3CCC4(CC3)CC(=Cc3c(-c5ccccc5C(F)(F)F)noc3C3CC3)C4)cc12 [Example 72] | 21 nM | – |
| O=C(O)c1cc(C(F)(F)F)cc(N2CCC3(CC2)CC(Cc2c(-c4ccccc4C(F)(F)F)noc2C2CC2)C3)n1 [Example 163] | 1270 nM | – |
| O=C(O)c1cc(F)c2nc(N3CCC4(CC3)CC(Nc3c(-c5c(Cl)cccc5Cl)noc3C3CC3)C4)sc2c1 [Example 5, 2-(2-((5-Cyclopropyl-3-(2,6-dichlorophenyl)isoxazol-4-yl)amino)-7-azaspiro[3.5]nonan-7-yl)-4-fluorobenzo[d]thiazole-6-carboxylic acid] | – | 60 nM |
| O=C(O)c1cc(OC(F)(F)F)c2nc(N3CCC4(CC3)CC(=Cc3c(-c5c(Cl)cncc5Cl)noc3C3CC3)C4)sc2c1 [Example 101] | 33 nM | – |

Further lines, results first:

| EC50 [1] | EC50 (read-out: HLE GAL-FXR EC50) | SMILES |
| --- | --- | --- |
| 19 nM | – | CC(C)Oc1cc(C(=O)O)nc2ccc(N3CCC4(CC3)CC(Cc3c(-c5ccccc5C(F)(F)F)noc3C3CC3)C4)cc12 [Example 84] |
| 1700 nM | – | C=Cc1cncc(C=C)c1-c1noc(C2CC2)c1C=C1CC2(CCN(c3nc4c(F)cc(C(=O)O)cc4s3)CC2)C1 [Example 165] |
| 14 nM | – | O=C(O)c1cc(OC2CCC2)c2cc(N3CCC4(CC3)CC(=Cc3c(-c5c(Cl)cncc5Cl)noc3C3CC3)C4)ccc2n1 [Example 124] |
| 744 nM | – | O=C(O)c1ccc2nc(N3CCC4(CC3)CC(Cc3c(-c5ccccc5C(F)(F)F)noc3C3CC3)C4)sc2n1 [Example 114] |
| 450 nM | – | NC(=O)c1cc(OC2CCC2)c2cc(N3CCC4(CC3)CC(Cc3c(-c5ccccc5C(F)(F)F)noc3C3CC3)C4)ccc2n1 [Example 171] |
| 10 nM | – | O=C(O)c1cc(OC(F)F)c2cc(N3CCC4(CC3)CC(=Cc3c(-c5ccccc5C(F)(F)F)noc3C3CC3)C4)ccc2n1 [Example 86] |
| 2360 nM | – | N#Cc1ccc(N2CCC3(CC2)CC(=Cc2c(-c4c(Cl)cccc4Cl)noc2C2CC2)C3)cc1 [Example 48, 4-(2-((5-cyclopropyl-3-(2,6-dichlorophenyl)isoxazol-4-yl)methylene)-7-azaspiro[3.5]nonan-7-yl)benzonitrile] |
| 189 nM | – | CCOc1cc(C(N)=O)ncc1N1CCC2(CC1)CC(=Cc1c(-c3ccccc3C(F)(F)F)noc1C1CC1)C2 [Example 142] |
| 44 nM | – | O=C(O)c1cc(F)c2nc(N3CCC4(CC3)CC(Cc3c(-c5c(Cl)cccc5Cl)noc3C3CC3)C4)sc2c1 [Example 11] |
| 1350 nM | – | O=C(O)c1cc2ccc(N3CCC4(CC3)CC(Cc3c(-c5ccccc5C(F)(F)F)noc3C3CC3)C4)cc2nn1 [Example 34] |
| 410 nM | – | O=C(O)c1cc(F)c2nc(N3CCC4(CC3)CC(Cc3c(-c5ccccc5OC(F)(F)F)noc3C3CC3)C4)sc2c1 [Example 91] |
| 2470 nM | – | O=C(O)c1ncc(N2CCC3(CC2)CC(=Cc2c(-c4ccccc4C(F)(F)F)noc2C2CC2)C3)cc1C(F)(F)F [Example 157] |
| 65 nM | – | COc1cc(C(=O)O)nc2ccc(N3CCC4(CC3)CC(=Cc3c(-c5ccccc5OC(F)(F)F)noc3C3CC3)C4)cc12 [Example 70] |
| 27 nM | – | O=C(O)c1cc(C(F)(F)F)c2cc(N3CCC4(CC3)CC(=Cc3c(-c5c(Cl)cccc5Cl)noc3C(F)(F)F)C4)ccc2n1 [Example 136] |
| 650 nM | – | O=C(O)c1cc(F)c2nc(N3CCC4(CC3)CC(=Cc3c(-c5ccccc5C(F)(F)F)noc3C(F)(F)F)C4)sc2c1 [Example 169] |
| 13 nM | – | O=C(O)c1cc(C(F)(F)F)c2cc(N3CCC4(CC3)CC(Cc3c(-c5c(Cl)cccc5Cl)noc3C3CC3)C4)ccc2n1 [Example 41] |
| 1600 nM | – | CC(=O)N1CCc2cc(N3CCC4(CC3)CC(=Cc3c(-c5ccccc5OC(F)(F)F)noc3C3CC3)C4)ccc2C1 [Example 179, 1-(6-(2-((5-Cyclopropyl-3-(2-(trifluoromethoxy)phenyl)isoxazol-4-yl)methylene)-7-azaspiro[3.5]nonan-7-yl)-3,4-dihydroisoquinolin-2(1H)-yl)ethan-1-one] |
| 667 nM | – | COc1cc2nc(N3CCC4(CC3)CC(=Cc3c(-c5ccccc5C(F)(F)F)noc3C3CC3)C4)sc2cc1C(=O)O [Example 104] |
| 2240 nM | – | NC(=O)c1cc(C(F)(F)F)c2cc(N3CCC4(CC3)CC(Cc3c(-c5ccccc5C(F)(F)F)noc3C3CC3)C4)ccc2n1 [Example 177] |
| 1220 nM | – | O=C(O)c1ccc(N2CCC3(CC2)CC(Nc2c(-c4c(Cl)cccc4Cl)noc2C2CC2)C3)nc1 [Example 13] |
| 1930 nM | – | O=C(c1cc(OC2CCC2)c2cc(N3CCC4(CC3)CC(Cc3c(-c5ccccc5C(F)(F)F)noc3C3CC3)C4)ccc2n1)N1CC(F)(F)C1 [Example 186] |
| 267 nM | – | O=C(O)c1cc2ccc(N3CCC4(CC3)CC(=Cc3c(-c5c(Cl)cccc5Cl)noc3C3CC3)C4)cc2nn1 [Example 54] |
| 4700 nM | – | O=C(O)c1ccc(N2CCC3(CC2)CC(=Cc2c(C4CC4)cnn2-c2c(Cl)cccc2Cl)C3)nc1 [Example 22] |

From patent US11370785B2, “Multicyclic compounds as farnesoid X receptor modulators” (BRISTOL-MYERS SQUIBB COMPANY, priority 2017, dated 2022)
